# Where “and” joins values, the source holds several entries; their conditions need not be identical. Equal entries are not always repeated. Inconclusive results are not listed.
# Test system: BDF1 mice, B16 melanoma s.c., survival/tumor T/C
# Assay: NCI In Vivo Anticancer Drug Screen. Data for tumor model B16 Melanoma (subcutaneous) in B6D2F1 (BDF1) mice
# Details: endpoint: median survival time, higher = longer survival
# Procedure: The antitumor activity of compounds was measured in mice bearing transplantable tumors. Survival or tumor size were measured and the results are expressed as the measurement made in the treated group (T) divided by the measurement made in the vehicle treated control group (C). The tumor model used in this assay is B16 Melanoma (subcutaneous) in B6D2F1 (BDF1) mice
compound,measurement,setting,value
N[C@H](C(=O)O)[C@@H]1CC(Cl)=NO1,T/C,"dose: 1.0 mg/kg/injection, schedule: Q01DX009 (ip), vehicle: saline",87 % of control and 114 % of control
same,T/C,"dose: 1.4 mg/kg/injection, schedule: Q01DX009 (ip), vehicle: saline",116 % of control
same,T/C,"dose: 2.0 mg/kg/injection, schedule: Q01DX009 (ip), vehicle: saline",95 % of control and 105 % of control
same,T/C,"dose: 2.1 mg/kg/injection, schedule: Q01DX009 (ip), vehicle: saline",120 % of control
same,T/C,"dose: 3.2 mg/kg/injection, schedule: Q01DX009 (ip), vehicle: saline",124 % of control
same,T/C,"dose: 4.0 mg/kg/injection, schedule: Q01DX009 (ip), vehicle: saline",90 % of control
same,T/C,"dose: 8.0 mg/kg/injection, schedule: Q01DX009 (ip), vehicle: saline",108 % of control
same,T/C,"dose: 16.0 mg/kg/injection, schedule: Q01DX009 (ip), vehicle: saline",101 % of control
same,T/C,"dose: 27.0 mg/kg/injection, schedule: Q04DX003 (ip), vehicle: saline",120 % of control
same,T/C,"dose: 40.0 mg/kg/injection, schedule: Q01DX001 (ip), vehicle: saline",103 % of control
same,T/C,"dose: 40.0 mg/kg/injection, schedule: Q04DX003 (ip), vehicle: saline",119 % of control
same,T/C,"dose: 60.0 mg/kg/injection, schedule: Q01DX001 (ip), vehicle: saline",113 % of control
same,T/C,"dose: 60.0 mg/kg/injection, schedule: Q04DX003 (ip), vehicle: saline",124 % of control
same,T/C,"dose: 90.0 mg/kg/injection, schedule: Q01DX001 (ip), vehicle: saline",112 % of control
N=c1ccn2c(n1)OC1C(O)C(CO)OC12 (stereo not drawn),T/C,"dose: 37.5 mg/kg/injection, schedule: Q01DX009 (ip), vehicle: saline",95 % of control
same,T/C,"dose: 75.0 mg/kg/injection, schedule: Q01DX009 (ip), vehicle: saline",100 % of control
same,T/C,"dose: 150.0 mg/kg/injection, schedule: Q01DX009 (ip), vehicle: saline",101 % of control
COC(=O)Nc1nc2ccc(C(=O)c3cccs3)cc2[nH]1,T/C,"dose: 50.0 mg/kg/injection, schedule: Q04DX002 (iv), vehicle: other",110 % of control
same,T/C,"dose: 50.0 mg/kg/injection, schedule: Q05DX005 (ip), vehicle: other",104 % of control
same,T/C,"dose: 60.0 mg/kg/injection, schedule: Q05DX005 (ip), vehicle: other",105 % of control
same,T/C,"dose: 70.0 mg/kg/injection, schedule: Q05DX005 (ip), vehicle: other",103 % of control
Nc1ccc(N=Nc2ccccc2)c(N)c1,T/C,"dose: 50.0 mg/kg/injection, schedule: Q01DX009 (ip), vehicle: Klucel (hydroxypropylcellulose) (HPC)",91 % of control
same,T/C,"dose: 100.0 mg/kg/injection, schedule: Q01DX009 (ip), vehicle: Klucel (hydroxypropylcellulose) (HPC)",106 % of control
C[n+]1c(/C=C\C=C\N2CCCCC2)sc2ccccc21,T/C,"dose: 0.01 mg/kg/injection, schedule: Q01DX009 (ip), vehicle: Klucel (hydroxypropylcellulose) (HPC)",188 % of control
same,T/C,"dose: 0.02 mg/kg/injection, schedule: Q01DX009 (ip), vehicle: Klucel (hydroxypropylcellulose) (HPC)",170 % of control
same,T/C,"dose: 0.05 mg/kg/injection, schedule: Q01DX009 (ip), vehicle: Klucel (hydroxypropylcellulose) (HPC)",160 % of control
same,T/C,"dose: 0.1 mg/kg/injection, schedule: Q01DX009 (ip), vehicle: Klucel (hydroxypropylcellulose) (HPC)",171 % of control
same,T/C,"dose: 0.4 mg/kg/injection, schedule: Q01DX009 (ip), vehicle: Klucel (hydroxypropylcellulose) (HPC)",121 % of control
CC(C)(C)c1ccc(CN2CCN(C(c3ccccc3)c3ccc(Cl)cc3)CC2)cc1 (stereo not drawn),T/C,"dose: 22.5 micrograms/kg/injection, schedule: Q01DX009 (ip), vehicle: Klucel (hydroxypropylcellulose) (HPC)",91 % of control
same,T/C,"dose: 45.0 micrograms/kg/injection, schedule: Q01DX009 (ip), vehicle: Klucel (hydroxypropylcellulose) (HPC)",88 % of control
COC12C(COC(N)=O)C3=C(C(=O)C(C)=C(N)C3=O)N1CC1C2N1C (stereo not drawn),T/C,"dose: 1.0 mg/kg/injection, schedule: Q01DX009 (ip), vehicle: Klucel (hydroxypropylcellulose) (HPC)",106 % of control
same,T/C,"dose: 2.0 mg/kg/injection, schedule: Q01DX009 (ip), vehicle: Klucel (hydroxypropylcellulose) (HPC)",91 % of control
same,T/C,"dose: 8.0 mg/kg/injection, schedule: Q01DX009 (ip), vehicle: Klucel (hydroxypropylcellulose) (HPC)",109 % of control
